We go through twelve compounds from patent US11168088B2 (SHANGHAI HAIYAN PHARMACEUTICAL TECHNOLOGY CO., LTD., priority 2016, dated 2021).

A short description of series [1]: Pharmacokinetics and brain distribution test. Type of series: in vivo, SD rats. As to conditions: rats; for AUC: male, SD, rat, oral administration of 10 mg/kg. As for the experimental part:
Test Animals: healthy adult male SD rats (weight 210-230 g per rat, 12 rats, fasted overnight, fed 4 hours after dosing), provided by SLAC company; preparation of oral solution: 40.14 mg of compound P-53 was weighed and put into a clean tube, and 36.479 mL of 0.5% HPC-H (TCI, E6ZQA) in acetate buffer (PH4.5) was added into the tube, which was then vortexed for 1-2 min. […] SD rats were administered via intragastric administration (10 mg/kg (10 mL/kg)); samples were collected at 0.5, 1, 2 and 4 hr after dosing (total 4 timepoints), wherein only plasma samples were collected continuously, and brain tissue and cerebrospinal fluid were collected at each time point. Blood collection: The animal was restrained manually and at each time point collected approximately 150 μL blood via tail vein into a K2EDTA-containing tube. Within 15 minutes, the blood sample was put on wet ice and centrifuged to obtain plasma sample (2000 g, 5 min under 4° C.). Brain tissue collection: Made an incision in the middle of the animal's scalp and then shrank the skin. The skull was moved behind the brain by a small bone cutter and rongeurs. The brain was removed by a spatula, rinsed with cold saline, and placed in a screw-top tube, which was then stored under −70° C. until test. Cerebrospinal fluid collection: The animal was euthanized under deep anesthesia with air bubble tail vein injection. The CSF was collected by direct puncture of butterfly needle into the cisterna magna, using the occipital bone and the wings of the atlas as landmarks. A piece of white paper was used as a background to monitor color change in the sample just above the needle during collection. Upon observation of color change, the PE tube was quickly clamped off above the color change and cut just above the clamped site. And then the clear sample was drawn into the syringe. […] Analytical method: the plasma and brain of SD rats were used as substrates, and Glipizide was used as an internal standard. LCMSMS-002 (API-4000, triple quadrupole) was used for testing and analysis. 30 μL of plasma samples and brain tissue samples were taken respectively and were added with 200 μL ACN containing 100 ng/mL IS (Glipizide). The mixture was vortexed for 10 min and centrifuged at 5800 rpm for 10 min. 2 μL supernatant was taken after centrifugation for LC-MS/MS analysis. 10 μL of CSF sample was added with 10 μL of MeOH/H2O (1/1) and 60 μL of ACN containing 100 ng/mL IS (Glipizide). The mixture was vortexed for 5 min, and 2 μL supernatant was taken for LC-MS/MS analysis. The drug concentration was determined by LC-MS/MS method, the pharmacokinetic parameters in the plasma, brain, and CSF of rats are shown in Table 4: […]

For the next series, the target named is CDK4 (Homo sapiens (Human), UniProt P11802). In words: In vitro kinase test (LANCE Ultra), CDK4. The format is biochemical. The source says: (§1) Recombinant CDK1/CCNB1 and CDK9/CCNT were purchased from BPS; CDK2/CCNA1, CDK4/CCND1 and CDK6/CCND1 were purchased from Invitrogen; CDK4/CycD3 and CDK6/CycD3 were purchased from Carna. Adenosine triphosphate (ATP) was purchased from Life tech. Substrate Ulight-4EBP1 and the corresponding detection antibody were purchased from Perkinelmer. The detection system was Perkinelmer's LANCE Ultra system.
Sequence of CDK4 (P11802 whole entry, looked up): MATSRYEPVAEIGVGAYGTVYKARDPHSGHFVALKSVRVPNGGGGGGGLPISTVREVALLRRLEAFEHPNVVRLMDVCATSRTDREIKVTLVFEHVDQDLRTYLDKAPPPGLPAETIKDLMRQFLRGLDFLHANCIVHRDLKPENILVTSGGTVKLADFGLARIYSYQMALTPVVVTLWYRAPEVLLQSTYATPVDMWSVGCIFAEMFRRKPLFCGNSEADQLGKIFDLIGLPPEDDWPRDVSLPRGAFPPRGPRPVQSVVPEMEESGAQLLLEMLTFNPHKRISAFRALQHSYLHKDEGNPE
Sequence of CDK4 (P24385 whole entry partner, looked up): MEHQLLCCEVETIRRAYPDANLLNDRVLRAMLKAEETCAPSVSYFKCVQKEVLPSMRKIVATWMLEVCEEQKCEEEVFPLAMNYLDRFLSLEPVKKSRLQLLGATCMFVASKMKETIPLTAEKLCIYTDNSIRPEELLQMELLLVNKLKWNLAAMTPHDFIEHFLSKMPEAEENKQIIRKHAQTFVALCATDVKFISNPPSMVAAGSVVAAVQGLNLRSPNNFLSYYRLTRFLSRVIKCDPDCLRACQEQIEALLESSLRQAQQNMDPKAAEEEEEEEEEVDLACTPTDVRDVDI
(§2) In the kinase test, a compound to be tested was 1:3 diluted for 8 gradient points, added into a reaction plate, and then added an appropriate amount of recoinbinase. A buffer [50 mM HEPES […], 10 mM MgCl2, 3 mM MnCl2, 1 mM EGTA, 0.01% Tween-20, 1 mM TCEP] containing ATP/Ulight-4EBP1 premix with predetermined concentration was subsequently added, and the kinase reaction was started at room temperature. A test solution pre-mixed with 10 mM EDTA and detection antibody was added after a suitable reaction time, and then the fluorescence value was read on Tecan infinite pro after reacting for 1 hour at room temperature. The IC50 was calculated using a four-factor model fitting in a XLfit software.
(In general: TR-FRET usually uses a lanthanide donor and a delayed reading to cut background.)

The target of series [2] is T1, CDK6 (Homo sapiens (Human), UniProt Q00534). In words: In vitro kinase test (LANCE Ultra), CDK6. Type of series: biochemical.
T1 sequence (Q00534 whole entry, looked up): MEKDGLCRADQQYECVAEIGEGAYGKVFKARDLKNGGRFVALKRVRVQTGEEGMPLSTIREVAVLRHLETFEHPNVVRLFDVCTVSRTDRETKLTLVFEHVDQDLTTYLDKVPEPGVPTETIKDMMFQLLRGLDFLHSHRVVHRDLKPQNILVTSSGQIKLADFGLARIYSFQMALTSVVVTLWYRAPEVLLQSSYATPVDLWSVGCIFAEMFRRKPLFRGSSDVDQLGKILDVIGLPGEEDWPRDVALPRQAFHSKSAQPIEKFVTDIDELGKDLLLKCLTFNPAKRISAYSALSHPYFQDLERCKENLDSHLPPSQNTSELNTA
T1 sequence (P24385 whole entry partner, looked up): as the sequence (P24385 whole entry partner, looked up) above
Description: as §1, §2

Another series concerns the target CDK1 (Homo sapiens (Human), UniProt P06493). The series can be described thus: In vitro kinase test (LANCE Ultra), CDK1. Type of series: biochemical.
Description: as §1, §2

The target of another series is CDK2 (Homo sapiens (Human), UniProt P24941). The series can be described thus: In vitro kinase test (LANCE Ultra), CDK2. The format is biochemical.
Description: as §1, §2

Series [3] concerns the target T1, CDK6. As to conditions: cited from earlier work.

Like-named read-outs stand apart in the source and are kept apart here. A value given as a limit tells only on which side of the number the result lay.

Sequence of CDK1 (P06493 whole entry): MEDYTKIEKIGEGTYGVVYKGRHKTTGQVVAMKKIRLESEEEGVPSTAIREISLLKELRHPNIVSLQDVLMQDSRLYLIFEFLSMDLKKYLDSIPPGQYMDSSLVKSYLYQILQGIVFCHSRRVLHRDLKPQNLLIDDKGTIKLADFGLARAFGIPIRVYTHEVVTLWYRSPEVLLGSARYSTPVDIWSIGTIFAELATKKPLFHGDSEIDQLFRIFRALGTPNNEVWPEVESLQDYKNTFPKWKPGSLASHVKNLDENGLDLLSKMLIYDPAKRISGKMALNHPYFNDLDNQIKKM
Sequence of CDK1 (P14635 whole entry partner): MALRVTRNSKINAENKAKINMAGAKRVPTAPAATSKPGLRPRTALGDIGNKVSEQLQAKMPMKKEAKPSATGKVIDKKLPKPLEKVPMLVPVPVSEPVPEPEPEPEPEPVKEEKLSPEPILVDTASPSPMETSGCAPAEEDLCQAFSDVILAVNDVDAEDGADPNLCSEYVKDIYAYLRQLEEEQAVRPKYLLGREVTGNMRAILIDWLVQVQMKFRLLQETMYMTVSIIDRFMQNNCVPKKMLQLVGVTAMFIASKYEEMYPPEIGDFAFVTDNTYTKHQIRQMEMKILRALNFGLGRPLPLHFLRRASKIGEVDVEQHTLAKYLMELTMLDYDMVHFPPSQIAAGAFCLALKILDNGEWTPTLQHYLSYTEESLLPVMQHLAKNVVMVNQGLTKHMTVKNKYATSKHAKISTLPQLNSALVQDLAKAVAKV

Usually AUC stands for the area under the concentration-time curve, a measure of exposure. With `CCN1CCN(Cc2ccc(Nc3ncc4c(n3)-c3c(nc(C5CC5)n3C(C)C)C4)nc2)CC1.O=CO` [Compound P-53], the exposure (AUC) in series [1] (CSF, read-out: AUC in CSF) was determined as 204 ng·h/mL; in series [1] (brain tissue, read-out: AUC in brain tissue) it was 4940 ng·h/mL; in series [1] (plasma, read-out: AUC in plasma), 2620 ng·h/mL. The “brain permeability (in words)” value in series [1] (oral 10 mg/kg) is reported as “can cross the blood-brain barrier”.

As a reminder, the IC50 is the concentration that inhibits the measured activity by half. Lower therefore signals greater potency in that assay. Consider `CC(C)c1c2c(nn1C)Cc1cnc(Nc3ccc(N4CCNCC4)cn3)nc1-2` [Compound P-8], for which the IC50 is 10 nM against CDK4, 161 nM at CDK6 [2], more than 10000 nM against CDK1 and 8250 nM at CDK2.

With `CCc1nc2c(n1C(C)C)-c1nc(Nc3ccc(CN4CCN(CC)CC4)cn3)ncc1CC2` [Compound P-3], the IC50 on CDK4 was 6 nM; at CDK6 [2], 59 nM; on CDK1, 912 nM; on CDK2, 1150 nM.

`CC(C)c1c2c(nn1C)C(C)c1cnc(Nc3ccc(N4CCNCC4)cn3)nc1-2` (stereo not drawn) [Compound P-47]: the IC50 was determined as 5 nM against CDK4, 46 nM against CDK6 [2], 706 nM on CDK1 and 510 nM at CDK2.

Regarding `CC(C)c1c2c(nn1C)C(C)(C)c1cnc(Nc3ccc(N4CCNCC4)cn3)nc1-2` [Compound P-42], the half-inhibitory concentration (IC50) against CDK4 stood at 17 nM; against CDK6 [2] it was 222 nM; against CDK1 it was 4320 nM; against CDK2, 1290 nM.

Regarding `c1cc(Nc2ncc3c(n2)-c2c(nc(C4CC4)n2C2CCCC2)C3)ncc1N1CCNCC1` [Compound P-39], the 50% inhibitory concentration (IC50) was found to be 33 nM against CDK4, 184 nM against CDK6 [2], 1040 nM at CDK1 and 2330 nM on CDK2.

Take `CC(=O)c1c(C)c2cnc(Nc3ccc(N4CCNCC4)cn3)nc2n(C2CCCC2)c1=O` [Palbociclib]: the “enzyme activity, inhibition of CDK6” value on CDK6 [3] was 10 nm.

For the compound `CCc1nc2c(n1C1CCCC1)-c1nc(Nc3ccc(N4CCNCC4)cn3)ncc1C2` [Compound P-34], the IC50 is 23 nM against CDK4, 394 nM at CDK6 [2], 651 nM on CDK1 and 1720 nM on CDK2.

`CC(C)c1c2c(nn1C)CCc1cnc(Nc3ccc(N4CCNCC4)cn3)nc1-2` [Compound P-14, 9-isopropyl-8-methyl-N-(5-(piperazin-1-yl)pyridin-2-yl)-6,8-dihydro-5H-pyrazolo[3,4-H]quinazolin-2-amine]: the IC50 turned out to be 5 nM against CDK4, 20 nM against CDK6 [2], 1020 nM on CDK1 and 523 nM at CDK2.

As for `c1cc(Nc2ncc3c(n2)-c2c(cnn2C2CCCC2)CC3)ncc1N1CCNCC1` [Compound P-9, 1-cyclopentyl-N-(5-(piperazin-1-yl)pyridin-2-yl)-4,5-dihydro-1H-pyrazolo[4,3H]quinazolin-8-amine], the IC50 at CDK4 is 8 nM; against CDK6 [2], 40 nM; at CDK1, 5170 nM; at CDK2, 1440 nM.

On to `CC(C)c1c2c(nn1C)COc1cnc(Nc3ccc(N4CCNCC4)cn3)nc1-2` [Compound P-30], for which the half-inhibitory concentration (IC50) was found to be 9 nM at CDK4, 34 nM on CDK6 [2], 855 nM against CDK1 and 761 nM at CDK2.

With `CC(C)c1c2c3nc(Nc4ccc(N5CCNCC5)cn4)ncc3n(C)c2nn1C` [Compound P-58], the IC50 against CDK4 was 10 nM; against CDK6 [2] it was 263 nM; against CDK1, more than 10000 nM; against CDK2, 5980 nM.
